Measured values: patent EP2140864A2 (H. Lundbeck A/S, priority 2001, dated 2002)

target: T1, human GAL3 receptor (Homo sapiens, UniProt O60755); assay: Radioligand binding at cloned human GAL3 receptor; settings: indolones, cloned human receptor; read-out: Ki GalR3
T1 construct: expressed in transfected cells
T1 sequence (O60755 1-368): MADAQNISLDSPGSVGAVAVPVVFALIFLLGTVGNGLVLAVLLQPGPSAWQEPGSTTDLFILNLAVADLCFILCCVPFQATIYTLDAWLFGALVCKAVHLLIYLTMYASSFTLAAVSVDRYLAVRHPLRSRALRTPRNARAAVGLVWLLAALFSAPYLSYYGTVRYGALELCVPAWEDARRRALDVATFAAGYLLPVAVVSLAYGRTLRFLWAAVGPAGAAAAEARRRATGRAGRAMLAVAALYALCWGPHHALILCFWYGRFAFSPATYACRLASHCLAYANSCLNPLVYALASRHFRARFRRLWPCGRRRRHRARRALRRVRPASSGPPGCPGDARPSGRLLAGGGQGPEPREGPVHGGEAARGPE
Method in brief: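 Compound vehicle, as final assay concentration, was 3% DMSO (indolones) or 1% ethanol/0.09% polypuronic acid F-127 (pyrimidines). Binding measured on fresh or frozen membranes of stably transfected LM(tk-) mouse fibroblasts carrying cloned human GAL3, in pH 7.4 HEPES buffer; values derived by nonlinear regression.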

| Compound | Ki |
| --- | --- |
| O=C1/C(=N\c2ccc(Cl)c(Cl)c2)c2ccccc2N1Cc1ccccn1 [Example 254] | 64 nM |
| Cc1noc(C)c1CN1C(=O)/C(=N\c2ccc(Cl)c(Cl)c2)c2ccccc21 [Example 255] | 49 nM |
| O=C1/C(=N\c2ccc(Cl)c(Cl)c2)c2ccccc2N1c1cccc(C(F)(F)F)c1 [Example 256, (3Z)-3-[(3,4-DICHLOROPHENYL)IMINO]-1-[3-(TRIFLUOROMETHYL)PHENYL]-1,3-DIHYDRO-2H-INDOL-2-ONE] | 18 nM |
| O=C1/C(=N\c2ccc(Cl)c(Cl)c2)c2ccccc2N1c1cc(Cl)cc(Cl)c1 [Example 257, (3Z)-1-(3,5-DICHLOROPHENYL)-3-[(3,4-DICHLOROPHENYL)IMINO]-1,3-DIHYDRO-2H-INDOL-2-ONE] | 33 nM |
| COc1ccc2c(c1)N(c1ccccc1)C(=O)/C2=N\c1ccc(Cl)c(Cl)c1 [Example 258, (3Z)-3-[(3,4-DICHLOROPHENYL)IMINO]-6-METHOXY-1-PHENYL-1,3-DIHYDRO-2H-INDOL-2-ONE] | 67 nM |
| Cc1cc(/N=C2\C(=O)N(c3ccsc3)c3ccccc32)ccc1Cl [Example 259] | 55 nM |
| O=C1/C(=N\c2ccc3ccccc3c2)c2ccccc2N1c1ccsc1 [Example 260, (3Z)-3-(2-NAPHTHYLIMINO)-1-(3-THIENYL)-1,3-DIHYDRO-2H-INDOL-2-ONE] | 60 nM |
| O=C1/C(=N\c2ccc(Cl)cc2)c2ccccc2N1c1ccsc1 [Example 261, (3Z)-3-[(4-CHLOROPHENYL)IMINO]-1-(3-THIENYL)-1,3-DIHYDRO-2H-INDOL-2-ONE] | 34 nM |
| O=C1/C(=N\c2ccc(I)cc2)c2ccccc2N1c1ccsc1 [Example 262, (3Z)-3-[(4-IODOPHENYL)IMINO]-1-(3-THIENYL)-1,3-DIHYDRO-2H-INDOL-2-ONE] | 46 nM |
| Cc1ccc(/N=C2\C(=O)N(c3ccsc3)c3ccccc32)cc1 [Example 263] | 136 nM |
| O=C1/C(=N\c2cc(F)cc(F)c2)c2ccccc2N1c1ccsc1 [Example 264, (3Z)-3-[(3,5-DIFLUOROPHENYL)IMINO]-1-(3-THIENYL)-1,3-DIHYDRO-2H-INDOL-2-ONE] | 27 nM |
| O=C1/C(=N\c2ccc(-c3ccccc3)cc2)c2ccccc2N1c1ccsc1 [Example 265, (3Z)-3-([1,1'-BIPHENYL]-4-YLIMINO)-1-(3-THIENYL)-1,3-DIHYDRO-2H-INDOL-2-ONE] | 80 nM |
| CCOC(=O)c1cccc(/N=C2\C(=O)N(c3ccsc3)c3ccccc32)c1 [Example 266, ETHYL 3-{[(3Z)-2-OXO-1-(3-THIENYL)-1,2-DIHYDRO-3H-INDOL-3-YLIDENE]AMINO}BENZOATE] | 236 nM |
| O=C1/C(=N\c2ccc(Cl)nc2)c2ccccc2N1c1ccsc1 [Example 267] | 234 nM |
| O=C1/C(=N\c2ccc(Br)cc2)c2ccccc2N1c1ccsc1 [Example 269, (3Z)-3-[(4-BROMOPHENYL)IMINO]-1-(3-THIENYL)-1,3-DIHYDRO-2H-INDOL-2-ONE] | 46 nM |
| O=C1/C(=N\c2cccc(Cl)c2)c2ccccc2N1c1ccsc1 [Example 270, (3Z)-3-[(3-CHLOROPHENYL)IMINO]-1-(3-THIENYL)-1,3-DIHYDRO-2H-INDOL-2-ONE] | 42 nM |
| Cc1cccc(/N=C2\C(=O)N(c3ccsc3)c3ccccc32)c1 [Example 271] | 114 nM |
| O=C1/C(=N\c2cccc(C(F)(F)F)c2)c2ccccc2N1Cc1ccccn1 [Example 273] | 202 nM |
| O=C1/C(=N\c2cc(Cl)cc(Cl)c2)c2ccccc2N1Cc1ccccn1 [Example 274] | 174 nM |
| Cc1noc(C)c1CN1C(=O)/C(=N\c2cccc(C(F)(F)F)c2)c2ccccc21 [Example 275] | 595 nM |
| O=C1/C(=N\c2ccc(F)c(F)c2)c2ccccc2N1Cc1cccnc1 [Example 276] | 192 nM |
| O=C1/C(=N\c2cccc(C(F)(F)F)c2)c2ccccc2N1Cc1cccnc1 [Example 277] | 198 nM |
| O=C1/C(=N\c2ccc(F)c(F)c2)c2ccccc2N1Cc1ccccn1 [Example 278] | 340 nM |
| O=C1/C(=N\c2cc(Cl)cc(Cl)c2)c2ccccc2N1Cc1cccnc1 [Example 279] | 81 nM |
| Cc1noc(C)c1CN1C(=O)/C(=N\c2cc(Cl)cc(Cl)c2)c2ccccc21 [Example 280] | 521 nM |
| CCn1c2ccccc2c2cc(/N=C3\C(=O)N(c4ccccc4)c4ccccc43)ccc21 [Example 281, (3Z)-3-[(9-ETHYL-9H-CARBAZOL-3-YL)IMINO]-1-PHENYL-1,3-DIHYDRO-2H-INDOL-2-ONE] | 150 nM |

same assay, conditions: pyrimidines, cloned human receptor; read-out: Ki GalR3

| Compound | Ki |
| --- | --- |
| CCCc1ccc(Nc2cc(N(C)C)nc(N3CCN(c4ccccn4)CC3)n2)cc1 [Example 209] | 205 nM |
| CCCCCc1ccc(Nc2cc(N(C)C)nc(N3CCN(c4ccccn4)CC3)n2)cc1 [Example 210] | 58 nM |
| CCC(C)c1ccc(Nc2cc(N(C)C)nc(N3CCN(c4ccccn4)CC3)n2)cc1 (centres unmarked) [Example 211] | 58 nM |
| CN(C)c1cc(Nc2ccccc2C(C)(C)C)nc(N2CCN(c3ccccn3)CC2)n1 [Example 212] | 231 nM |
| Cc1ccc(C)c(Nc2cc(N(C)C)nc(N3CCN(c4ccccn4)CC3)n2)c1 [Example 213] | 165 nM |
| Cc1cc(C)cc(Nc2cc(N(C)C)nc(N3CCN(c4ccccn4)CC3)n2)c1 [Example 214] | 676 nM |
| Cc1cccc(Nc2cc(N(C)C)nc(N3CCN(c4ccccn4)CC3)n2)c1C [Example 215] | 450 nM |
| CN(C)c1cc(Nc2cccc(Cc3ccccc3)c2)nc(N2CCN(c3ccccn3)CC2)n1 [Example 216] | 50 nM |
| CN(C)c1cc(Nc2ccc(Br)cc2Cl)nc(N2CCN(c3ccccn3)CC2)n1 [Example 217] | 190 nM |
| CN(C)c1cc(Nc2cccc(Cl)c2Cl)nc(N2CCN(c3ccccn3)CC2)n1 [Example 218] | 616 nM |
| CN(C)c1cc(Nc2cc(F)c(F)cc2F)nc(N2CCN(c3ccccn3)CC2)n1 [Example 219] | 558 nM |
| COc1ccc(Cl)cc1Nc1cc(N(C)C)nc(N2CCN(c3ccccn3)CC2)n1 [Example 220] | 708 nM |
| CN(C)c1cc(Nc2cc(F)c(F)c(F)c2)nc(N2CCN(c3ccccn3)CC2)n1 [Example 221] | 213 nM |
| CN(C)c1cc(Nc2cc(F)ccc2Cl)nc(N2CCN(c3ccccn3)CC2)n1 [Example 222] | 847 nM |
| Cc1ccc(Nc2cc(N(C)C)nc(N3CCN(c4ccccn4)CC3)n2)c(Cl)c1 [Example 223] | 559 nM |
| CN(C)c1cc(Nc2cccc(Cl)c2)nc(N2CCN(c3ccccn3)CC2)n1 [Example 224] | 218 nM |
| COc1cc(Nc2cc(N(C)C)nc(N3CCN(Cc4ccccc4)CC3)n2)cc(C(F)(F)F)c1 [Example 225] | 66 nM |
| COc1ccc(C(F)(F)F)cc1Nc1cc(N(C)C)nc(N2CCN(Cc3ccccc3)CC2)n1 [Example 226] | 72 nM |
| COc1ccc(OC)c(Nc2cc(N(C)C)nc(N3CCN(Cc4ccccc4)CC3)n2)c1 [Example 227] | 600 nM |
| CN(C)c1cc(Nc2cccc(OCc3ccccc3)c2)nc(N2CCN(Cc3ccccc3)CC2)n1 [Example 228] | 32 nM |
| CN(C)c1cc(Nc2ccc(C(F)(F)F)cc2)nc(N2CCN(Cc3ccccc3)CC2)n1 [Example 229] | 37 nM |

| Compound | Ki |
| --- | --- |
| CN(C)c1cc(Nc2ccc(Cl)c(Cl)c2Cl)nc(N2CCN(Cc3ccccc3)CC2)n1 [Example 230] | 52 nM |
| Cc1ccc(Nc2cc(N(C)C)nc(N3CCN(Cc4ccco4)CC3)n2)cc1 [Example 231] | 136 nM |
| COc1ccc(CCNc2nc(Nc3ccc(C)cc3)cc(N(C)C)n2)cc1 [Example 232] | 155 nM |
| COc1cccc(Nc2cc(N(C)C)nc(N3CCN(CC4CCCO4)CC3)n2)c1 (centres unmarked) [Example 233] | 869 nM |
| COc1ccc(CN2CCN(c3nc(Nc4ccc(C)cc4)cc(N(C)C)n3)CC2)cc1 [Example 235] | 114 nM |
| Cc1ccc(Nc2cc(N(C)C)nc(NCCc3cccs3)n2)cc1 [Example 237] | 404 nM |
| Cc1ccc(Nc2cc(N(C)C)nc(N3CCN(Cc4ccsc4)CC3)n2)cc1 [Example 238] | 331 nM |
| Cc1ccc(Nc2cc(N(C)C)nc(N3CCN(c4ccccn4)CC3)n2)cc1Br [Example 240] | 77 nM |
| Cc1ccc(Nc2cc(N(C)C)nc(N3CCN(c4ncccc4C#N)CC3)n2)cc1 [Example 241] | 261 nM |
| Cc1ccc(Nc2cc(N(C)C)nc(N3CCN(c4ccccn4)CC3)n2)cc1Nc1ccccn1 [Example 242] | 166 nM |
| CN(C)c1cc(Nc2cccc(Br)c2)nc(N2CCN(c3ccccn3)CC2)n1 [Example 243] | 46 nM |
| CN(C)c1cc(Nc2ccc(C(F)(F)F)cc2Cl)nc(N2CCN(Cc3ccccc3)CC2)n1 [Example 244] | 55 nM |
| COc1cccc(Nc2cc(N(C)C)nc(N3CCN(c4ccccn4)CC3)n2)c1 [Example 245] | 537 nM |
| COc1cccc(Nc2cc(N(C)C)nc(N3CCN(c4ccccc4C(F)(F)F)CC3)n2)c1 [Example 246] | 270 nM |
| COc1cccc(Nc2cc(N(C)C)nc(NCCc3ccccc3)n2)c1 [Example 247] | 195 nM |
| Cc1ccc(Nc2cc(N(C)C)nc(N(C)CCc3ccccc3)n2)cc1 [Example 248] | 33 nM |
| Cc1ccc(Nc2cc(N3CCCCC3)nc(N3CCN(c4c(C(F)(F)F)ccc[n+]4[O-])CC3)n2)cc1 [Example 249] | 386 nM |
| Cc1ccc(Nc2cc(N(C)C)nc(NCCc3ccccc3)n2)cc1 [Example 250] | 119 nM |
| COc1cccc(Nc2cc(N(C)C)nc(N(C)CCc3ccccc3)n2)c1 [Example 251] | 54 nM |
| COc1cccc(Nc2cc(N(C)C)nc(N3CCN(Cc4ccccc4)CC3)n2)c1 [Example 252] | 88 nM |
| Cc1ccc(Nc2cc(N(C)C)nc(N3CCN(Cc4ccccc4)CC3)n2)cc1 [Example 253] | 49 nM |
